Results: patent US7368470B2, “Substituted 3-pyrrolidine-indole derivatives” (Gruenenthal GmbH, priority 2003, dated 2008)

What follows are molecules tested against T1, serotonin reuptake (5HT uptake) (Rattus norvegicus, UniProt P31652) (assay: Serotonin reuptake inhibition (5HT uptake inhibition) in rat brain synaptosomes). Details: synaptosomes from male rats' brains.
T1 construct: These vesicular particles were isolated from the hypothalamus of male rats' brains for 5HT uptake; from tissue; host or cells: rat brain synaptosomes (P2 fraction; cerebral cortex / hypothalamus of male rats)
Assay type: biochemical
From the text: a) Tests on Serotonin Reuptake Inhibition
In order to be able to carry out these in vitro studies, synaptosomes from rats' cerebral cortices were freshly isolated. A “P2” fraction prepared according to Gray and Whittaker's instructions (E. G. Gray and V. P. Whittaker (1962) J. Anat. 76, 79-88) was used in each case. These vesicular particles were isolated from the hypothalamus of male rats' brains for 5HT uptake.
A detailed description of the method may be found in the literature (M. Ch. Frink, H.-H. Hennies, W. Englberger, M. Haurand and B. Wilffert (1996) Arzneim.-Forsch./Drug Res. 46 (III), 11, 1029-1036).

T1 sequence (P31652 whole entry): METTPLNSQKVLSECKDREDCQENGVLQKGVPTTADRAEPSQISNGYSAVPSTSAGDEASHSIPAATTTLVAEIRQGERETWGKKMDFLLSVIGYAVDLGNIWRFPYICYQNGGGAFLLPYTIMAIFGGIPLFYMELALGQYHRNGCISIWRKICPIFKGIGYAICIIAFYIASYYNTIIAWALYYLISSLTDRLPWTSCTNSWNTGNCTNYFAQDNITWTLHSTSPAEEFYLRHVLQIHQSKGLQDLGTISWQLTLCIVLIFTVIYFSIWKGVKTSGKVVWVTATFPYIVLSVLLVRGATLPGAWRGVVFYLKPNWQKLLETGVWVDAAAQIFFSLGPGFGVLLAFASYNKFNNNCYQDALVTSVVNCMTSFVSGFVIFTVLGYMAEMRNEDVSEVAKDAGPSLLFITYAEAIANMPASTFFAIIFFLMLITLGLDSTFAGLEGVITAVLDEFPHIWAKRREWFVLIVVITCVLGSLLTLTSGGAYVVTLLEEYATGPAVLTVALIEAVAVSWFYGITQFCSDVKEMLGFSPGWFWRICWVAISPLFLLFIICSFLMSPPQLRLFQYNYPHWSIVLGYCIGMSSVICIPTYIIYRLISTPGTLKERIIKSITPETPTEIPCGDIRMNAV

Row | Molecule | inhibition at 10 µM [%] | 5HT uptake, % inhibition [10 μM] [%]
1 | CN(C)C(=O)Cn1cc(C2CCN(C(=O)NCc3ccc(Cl)c(Cl)c3)C2)c2ccccc21 (stereo not shown) [Compound 17, 3-(1-dimethylcarbamoylmethyl-1H-indol-3-yl)-pyrrolidine-1-carboxylic acid 3,4-dichloro-benzylamide] | 43 | –
2 | COc1ccc(OC)c(CC(=O)N2CCC(c3cn(CC(=O)N(C)C)c4ccccc34)C2)c1 (stereo not shown) [Compound 19, 2-(3-{1-[2-(2,5-dimethoxy-phenyl)-acetyl]-pyrrolidin-3-yl}-indol-1-yl)-N,N-dimethyl-acetamide] | 86 | –
3 | CN(C)C(=O)Cn1cc(C2CCN(C(=O)c3ccccn3)C2)c2ccccc21 (stereo not shown) [Compound 21, N,N-dimethyl-2-{3-[1-(pyridin-2-carbonyl)-pyrrolidin-3-yl]-indol-1-yl}-acetamide] | 84 | –
4 | O=C(C1CCC1)N1CCC(c2c[nH]c3ccccc23)C1 (stereo not shown) [Compound 22, cyclobutyl-[3-(1H-indol-3-yl)-pyrrolidin-1-yl]-methanone] | 58 | –
5 | CCCCC(=O)N1CCC(c2cn(CC(=O)N(CC)CC)c3ccccc23)C1 (stereo not shown) [Compound 23, N,N-diethyl-2-[3-(1-pentanoyl-pyrrolidin-3-yl)-indol-1-yl]-acetamide] | 49 | –
6 | CCN(CC)C(=O)Cn1cc(C2CCN(C(=O)C3CCCC3)C2)c2ccccc21 (stereo not shown) [Compound 25, 2-1[3-(1-cyclopentanecarbonyl-pyrrolidin-3-yl)-indol-1-yl]-N,N-diethyl acetamide] | – | 80
7 | O=C(c1ccccc1Cl)N1CCC(c2c[nH]c3ccccc23)C1 (stereo not shown) [Compound 27, (2-chloro-phenyl)-[3-(1H-indol-3-yl)-pyrrolidin-1-yl]-methanone] | 70 | –
8 | Cc1ccc(S(=O)(=O)NC(Cc2ccccc2)C(=O)N2CCC(c3cn(CC(=O)N(C)C)c4ccccc34)C2)cc1 (stereo not shown) [Compound 29, N,N-dimethyl-2-(3-{1-[3-phenyl-2-(toluene-4-sulphonylamino)-propionyl]-pyrrolidin-3-yl)-indol-1-yl)-acetamide] | 63 | –
9 | CN(C)C(=O)Cn1cc(C2CCN(S(=O)(=O)Cc3ccccc3)C2)c2ccccc21 (stereo not shown) [Compound 30, N,N-dimethyl-2-[3-(1-phenylmethanesulphonyl-pyrrolidin-3-yl)-indol-1-yl]-acetamide] | 47 | –
10 | Cc1oc(C(C)(C)C)cc1C(=O)N1CCC(c2cn(Cc3ccccc3C#N)c3ccccc23)C1 (stereo not shown) [Compound 33, 2-{3-[1-(5-tert-butyl-2-methyl-furan-3-carbonyl)pyrrolidin-3-yl]-indol-1-ylmethyl)-benzonitrile] | 87 | –
11 | COc1cccc(Cn2cc(C3CCN(C(=O)CCc4ccccc4)C3)c3ccccc32)c1 (stereo not shown) [Compound 36, 1-{3-[1-(3-methoxy-benzyl)-1H-indol-3-yl]-pyrrolidin-1-yl}-3-phenyl-propan-1-one] | 42 | –
12 | COc1cccc(Cn2cc(C3CCN(C(=O)c4ccc(C)cc4)C3)c3ccccc32)c1 (stereo not shown) [Compound 43, {3-[1-(3-methoxy-benzyl)-1H-indol-3-yl]-pyrrolidin-1-yl}-p-tolyl-methanone] | 48 | –
13 | Cn1cc(C2CCN(C(=O)c3c(F)c(F)c(F)c(F)c3F)C2)c2ccccc21 (stereo not shown) [Compound 47, [3-(1-methyl-1H-indol-3-yl)-pyrrolidin-1-yl]-pentafluorophenyl-methanone] | 46 | –
14 | Cc1cc(C)cc(Cn2cc(C3CCN(CC(=O)Nc4scc(C)c4C#N)C3)c3ccccc32)c1 (stereo not shown) [Compound 50, N-(3-cyano-4-methyl-thiophen-2-yl)-2-{3-[1-(3,5-dimethyl-benzyl)-1H-indol-3-yl]-pyrrolidin-1-yl}acetamide] | 83 | –
15 | O=C(CN1CCC(c2cn(Cc3ccc(F)c(F)c3)c3ccccc23)C1)Nc1csc(C(F)(F)F)c1-c1ccccc1 (stereo not shown) [Compound 53, 2-{3-[1-(3,4-difluoro-benzyl)-1H-indol-3-yl]-pyrrolidin-1-yl}-N-(4-phenyl-5-trifluiommethyl-thiophen-3-yl)-acetamide] | – | 55

These molecules were tested against T2, noradrenalin reuptake (NA uptake) (Rattus norvegicus, UniProt Q9WTR4) (assay: Noradrenalin reuptake inhibition (NA uptake inhibition) in rat brain synaptosomes). Details: synaptosomes from male rats' brains.
T2 construct: These vesicular particles were isolated from the hypothalamus of male rats' brains for NA uptake; from tissue; host or cells: rat brain synaptosomes (P2 fraction; cerebral cortex / hypothalamus of male rats)
Assay type: biochemical
From the text: b) Tests on Noradrenalin Reuptake Inhibition
In order to be able to carry out these in vitro studies, synaptosomes from rats' cerebral cortices were freshly isolated. A “P2” fraction, prepared according to Gray and Whittaker's instructions (E. G. Gray and V. P. Whittaker (1962) J. Anat. 76, 79-88) was used in each case. These vesicular particles were isolated from the hypothalamus of male rats' brains for NA uptake.
A detailed description of the method may be found in the literature (M. Ch. Frink, H.-H. Hennies, W. Englberger, M. Haurand and B. Wilffert (1996) Arzneim.-Frosch./Drug Res. 46 (III), 11, 1029-1036).

T2 sequence (Q9WTR4 1-597): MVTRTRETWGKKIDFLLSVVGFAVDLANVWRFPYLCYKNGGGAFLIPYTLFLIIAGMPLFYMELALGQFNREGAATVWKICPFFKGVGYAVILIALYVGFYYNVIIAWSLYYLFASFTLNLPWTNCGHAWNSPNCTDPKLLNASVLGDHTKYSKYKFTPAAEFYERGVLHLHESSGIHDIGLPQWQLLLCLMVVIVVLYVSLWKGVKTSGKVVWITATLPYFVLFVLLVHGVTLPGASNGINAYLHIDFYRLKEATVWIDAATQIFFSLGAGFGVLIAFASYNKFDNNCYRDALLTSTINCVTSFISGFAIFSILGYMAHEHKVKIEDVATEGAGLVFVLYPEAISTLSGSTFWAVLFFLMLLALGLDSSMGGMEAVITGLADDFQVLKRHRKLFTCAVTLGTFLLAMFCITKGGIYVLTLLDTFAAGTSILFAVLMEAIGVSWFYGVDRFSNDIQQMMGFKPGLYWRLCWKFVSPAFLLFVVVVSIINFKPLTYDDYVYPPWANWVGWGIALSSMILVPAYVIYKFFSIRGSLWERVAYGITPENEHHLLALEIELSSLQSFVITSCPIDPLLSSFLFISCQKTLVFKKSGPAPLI

Row | Molecule | inhibition at 10 µM [%]
16 | CN(C)C(=O)Cn1cc(C2CCN(C(=S)Nc3cccc(C(F)(F)F)c3)C2)c2ccccc21 (stereo not shown) [Compound 16, N,N-dimethyl-2-{3-[1-(3-trifluoromethyl-phenylthiocarbamoyl)-pyrrolidin-3-yl]-indol-1-yl}-acetamide] | 50
17 | CCn1cc(C2CCN(C(=O)c3c(-c4ccccc4Cl)noc3C)C2)c2ccccc21 (stereo not shown) [Compound 32, [3-(2-chloro-phenyl)-5-methyl-isoxazol-4-yl]-[3-(1-ethyl-1H-indol-3-yl)-pyrrolidin-1-yl]-methanone] | 44
18 | CCN(CC)C(=O)Cn1cc(C2CCN(CC(=O)Nc3ccc(C(F)(F)F)cc3)C2)c2ccccc21 (stereo not shown) [Compound 51, N,N-diethyl-2-(3-{1-[(4-trifluoromethyl-phenylcarbamoyl)-methyl]-pyrrolidin-3-yl}-indol-1-yl)-acetamide] | 57

The molecules below were run on binding site 2 of the sodium channel (batrachotoxin (BTX) binding site) (assay: Binding test on the sodium channel, binding site 2 (BTX bond), [3H]-batrachotoxinin A20 α-benzoate as ligand). Details: 10 μM; rat cerebrocortex synaptosomes; ligand 10 nM; 25° C., 120 min.
Set-up: species or system rat

Row | Molecule | BTX bond, % inhibition [10 μM] [%]
19 | CCCc1ccc(C(=O)N2CCC(c3cn(Cc4ccc(C(F)(F)F)cc4)c4ccccc34)C2)cc1 (stereo not shown) [Compound 1, (4-propyl-phenyl)-{3-[1-(4-trifluoromethyl-benzyl)-1H-indol-3-yl]-pyrrolidin-1-yl}-methanone] | 95
20 | COc1ccc(C(=O)N2CCC(c3cn(CCC(C)C)c4ccccc34)C2)cc1OC (stereo not shown) [Compound 2, (3,4-dimethoxy-phenyl)-{3-[1-(3-methyl-butyl)-1H-indol-3-yl]-pyrrolidin-1-yl}-methanone] | 93
21 | CCCCn1cc(C2CCN(C(=O)c3ccc(C(F)(F)F)nc3C)C2)c2ccccc21 (stereo not shown) [Compound 3] | 93
22 | COc1cccc(Cn2cc(C3CCN(C(=O)C=Cc4ccccc4)C3)c3ccccc32)c1 (stereo not shown) [Compound 4, 1-{3-[1-(3-methoxy-benzyl)-1H-indol-3-yl]-pyrrolidin-1-yl}-3-phenyl-propenone] | 92
23 | O=C(c1cccc(F)c1F)N1CCC(c2cn(Cc3ccc(C(F)(F)F)cc3)c3ccccc23)C1 (stereo not shown) [Compound 5, (2,3-difluoro-phenyl)-{3-[1-(4-trifluoromethyl-benzyl)-1H-indol-3-yl]-pyrrolidin-1-yl}-methanone] | 92
24 | CC(C)CCn1cc(C2CCN(C(=O)c3ccc(C(C)(C)C)cc3)C2)c2ccccc21 (stereo not shown) [Compound 6, (4-tert-butyl-phenyl)-{3-[1-(3-methyl-butyl)-1H-indol-3-yl]-pyrrolidin-1-yl}-methanone] | 91
25 | CCCc1ccc(C(=O)N2CCC(c3cn(Cc4ccc(Br)cc4)c4ccccc34)C2)cc1 (stereo not shown) [Compound 7, {3-[1-(4-bromo-benzyl)-1H-indol-3-yl]-pyrrolidin-1-yl}-(4-propyl-phenyl)-methanone] | 89
26 | CCOc1ccccc1C(=O)N1CCC(c2cn(Cc3cccc(OC)c3)c3ccccc23)C1 (stereo not shown) [Compound 8, (2-ethoxy-phenyl)-{3-[1-(3-methoxy-benzyl)-1H-indol-3-yl]-pyrrolidin-1-yl}-methanone] | 88
27 | CCn1cc(C2CCN(C(=O)c3ccc(C(F)(F)F)c(F)c3)C2)c2ccccc21 (stereo not shown) [Compound 9] | 84
28 | CCn1cc(C2CCN(C(=O)c3cccc(C)c3C)C2)c2ccccc21 (stereo not shown) [Compound 10, (2,3-dimethyl-phenyl)-[3-(1-ethyl-1H-indol-3-yl)-pyrrolidin-1-yl]-methanone] | 83
29 | COc1cccc(Cn2cc(C3CCN(C(=O)C(C)Oc4ccccc4)C3)c3ccccc32)c1 (stereo not shown) [Compound 11, 1-{3-[1-(3-methoxy-benzyl)-1H-indol-3-yl]-pyrrolidin-1-yl}-2-phenoxy-propan-1-one] | 83
30 | CCn1cc(C2CCN(C(=O)COc3cccc(Cl)c3)C2)c2ccccc21 (stereo not shown) [Compound 12, 2-(3-chloro-phenoxy)-1-[3-(1-ethyl-1H-indol-3-yl)-pyrrolidin-1-yl]-ethanone] | 83
31 | CC(Oc1ccccc1)C(=O)N1CCC(c2cn(Cc3ccc(C#N)cc3)c3ccccc23)C1 (stereo not shown) [Compound 13, 4-(3-[1-(2-phenoxy-propionyl)-pyrrolidin-3-yl]-indol-1-ylmethyl}-benzonitrile] | 82
32 | Cc1cc(C)c(S(=O)(=O)N2CCC(c3cn(CC(=O)N(C)C)c4ccccc34)C2)c(C)c1 (stereo not shown) [Compound 14, N,N-dimethyl-2-{3-[1-(2,4,6-trimethyl-benzenesulphonyl)-pyrrolidin-3-yl]-indol-1-yl}-acetamide] | 80
33 | CCn1cc(C2CCN(C(=O)c3ccc(Cl)c(Cl)c3)C2)c2ccccc21 (stereo not shown) [Compound 15, (3,4-dichloro-phenyl)-[3-(1-ethyl-1H-indol-3-yl)-pyrrolidin-1-yl]-methanone] | 80
34 | Cc1oc(C(C)(C)C)cc1C(=O)N1CCC(c2cn(Cc3ccccc3C#N)c3ccccc23)C1 (stereo not shown) [Compound 33, 2-{3-[1-(5-tert-butyl-2-methyl-furan-3-carbonyl)pyrrolidin-3-yl]-indol-1-ylmethyl)-benzonitrile] | 89
35 | COc1cccc(Cn2cc(C3CCN(C(=O)CCc4ccccc4)C3)c3ccccc32)c1 (stereo not shown) [Compound 36, 1-{3-[1-(3-methoxy-benzyl)-1H-indol-3-yl]-pyrrolidin-1-yl}-3-phenyl-propan-1-one] | 96
36 | COc1cccc(Cn2cc(C3CCN(C(=O)c4ccc(C)cc4)C3)c3ccccc32)c1 (stereo not shown) [Compound 43, {3-[1-(3-methoxy-benzyl)-1H-indol-3-yl]-pyrrolidin-1-yl}-p-tolyl-methanone] | 92

Same assay, conditions: radioligand; mean±SEM, N=3 independent test series; read-out: KD value for this binding site

Row | Molecule | Kd [µM]
37 | [^3H]-batrachotoxinin A20 α-benzoate [reference compound] | 0.0246 ± 0.00156
